Data set [1] in a line: Stability in simulated gastric fluid. It is filed as in vitro ADME. The following applies: simulated gi fluid, pH 1.2. The procedure: Stability in simulated gastric fluid: A stock solution of fosmetpantotenate or its individual diastereomers was prepared in 0.1% formic acid in methanol. Simulated gastric fluid, pH 1.2, was prepared with 2 g/L sodium chloride, 3.2 g/L of pepsin, and 0.7% (v/v) HCl. Gastric buffer, pH 1.2, was prepared containing 2 g/L sodium chloride and 0.7% (v/v) HCl. An appropriate aliquot of fosmetpantotenate or individual diastereomers to yield an initial concentration of 10 μM was added to both fluids, and samples were mixed at ~25°C on an orbital shaker. Aliquots (50 μL) were taken at 0, 2, and 4 h; added to 150 μL dimethyl sulfoxide (DMSO) containing an analytical internal standard; vortexed; and analyzed immediately by LC-MS/MS.
(§1) Bioanalysis for determinations of analyte stability: Samples were analyzed using a benchtop tandem quadrupole detector (TQD) mass spectrometer (Waters Ltd, Centennial Park, Hertfordshire). […] Suitable retention and peak shape with separation of the 2 diastereomers were obtained. The chromatography column was a Phenomenex-Kinetex XB C18 (2.10 x 50 mm; 2.6 μm), with a 0.7 mL/min flow rate and a 2 μL injection volume. […] The gradient was initiated with 20% B and increased linearly, reaching 40% B at 0.6 min, followed by 50% B at 0.8 min and by 95% B at 0.9 min. Conditions were kept isocratic through 1.2 min, returned to starting conditions (20% B) at 1.25 min, and maintained at 20% B through 1.5 min before the next injection. Since fosmetpantotenate is a mixture of diastereomers which are resolved chromatographically, the fosmetpantotenate MRM area corresponds to the sum of the MRM areas of the individual diastereomers.
(§2) The percent of compound remaining was determined from the MRM area response in each sample relative to that in the T = 0 samples (normalized for internal standard). Natural log plots of the percent compound remaining over time were used to determine the t½ of compound disappearance using the relationship t½ = -0.693/λ, where λ is the slope of the natural logarithm of the percent compound remaining vs time curve.

A short description of data set [2]: Metabolic stability in mouse whole blood. It is filed as in vitro ADME. To be noted: mouse, blood. The procedure:
(§3) Metabolic stability in blood and liver microsomes: Fosmetpantotenate or its individual diastereomers (5 μM, n = 2, 37°C) were incubated in mouse, rat, cynomolgus monkey, and human whole blood. Samples (50 μL) were taken at 0, 5, 15, 30, and 60 min. Incubations of fosmetpantotenate or its individual diastereomers (1 μM, n = 2, 37°C) in pooled liver microsomes (0.25 mg protein/mL in 0.1 M phosphate buffer pH 7.4) were initiated with the addition of nicotinamide adenine dinucleotide phosphate (NADPH; 1 mM). Aliquots (100 μL) were obtained at 0, 5, 10, 20, and 40 min and added to 150 μL of 0.1% formic acid in acetonitrile-containing carbamazepine (0.5 μM) as an analytical internal standard, centrifuged, and the supernatants analyzed by LC-MS/MS.
as §1, §2

Data set [3] can be described thus: Metabolic stability in rat whole blood. To be noted: rat, blood. It is filed as in vitro ADME. The procedure:
as §3, §1, §2

Data set [4] can be described thus: Metabolic stability in monkey whole blood. It is filed as in vitro ADME, cynomolgus monkey. To be noted: monkey, blood. The procedure:
as §3, with “Samples (50 μL) were taken at 0, 5, 15, 30, and 60 min.” left out
as §1, §2

A short description of data set [5]: Metabolic stability in human whole blood. It is filed as in vitro ADME. To be noted: human, blood. The procedure: as §3, §1, §2
For data set [6], the system named is porcine brain endothelial cell (PBEC) co-culture model.
Description: (§4) Permeability studies were performed after 2 days of co-culture with rat astrocytes. […] In each filter used for transport, a paracellular marker was included as an internal control to monitor the integrity of the cell monolayer. The day of the experiment, culture medium was removed and cells on Transwell inserts were pre-incubated for 30 min with Hank's Balanced Salt Solution (HBSS) containing 20 mM Hepes pH 7.4 and 0.1% bovine serum albumin (BSA). […] Aliquots from the basal compartment were taken after 1 h; fluorescence was measured using a fluorescence detector. The permeability coefficient of the total system was calculated as follows: P[cm/s]=Vd×ΔMr/A×Md×Δt Where:
(§5) To correct for the contribution of the porous polycarbonate membrane of the filter in the absence of cells, the permeability was also determined for the cell-free system. Contribution of the endothelial cell monolayer to the permeability of the cell and filter system was determined by the following equation: 1/Pe=1/Pt-1/Pf Where the total permeability of the system is denoted as Pt, the cell-free filter as Pf, and the endothelial cell layer alone as Pe. The total resistance of the system towards passage of a substance is composed of 2 resistances in series: that of the cell monolayer and that of the filter; permeability is estimated as 1/resistance [27]. […] Mass balance was determined based on the amount of compound recovered in the donor and receiver chamber at the end of the assay relative to the amount added to the donor chamber at time 0.
Data set [7] in a line: Microdialysis (brain striatal dialysate) in C57Bl6 mice. To be noted: striatal dialysate; oral dose at 700 mg/kg; all samples; 700 mg/kg.
Description: Mice were anesthetized using isoflurane (2%, 800 mL/min O2).
For oral dosing experiments, MetaQuant microdialysis probes (regenerated cellulose membrane, BrainLink, the Netherlands) were inserted into the striatum (3 mm exposed surface). Coordinates for the tips of the probes for mice were anterior-posterior (AP) = +0.8 mm from bregma, lateral (L) = -1.7 mm from midline, and ventral (V) = -4.0 mm from dura, the toothbar set at 0 mm.
Microdialysis animal dosing and sample collection: Adult non-fasted male C57Bl6 mice (20–29 g; Harlan Laboratories, Livermore, CA), and Macaca fascicularis (4–9 kg, 3–6 yr old) were used for the experiments. For oral dosing, fosmetpantotenate was formulated as a solution in 20% hydroxypropyl-beta-cyclodextrin in 50 mM citrate buffer in water pH 5.0 and administered using a dose volume of 10 mL/kg. Mice (N = 6 serially sampled) received fosmetpantotenate as a single oral dose at 700 mg/kg and monkeys received a single oral dose at either 100 mg/kg (N = 4 serially sampled) or 300 mg/kg (N = 2 serially sampled).
Microdialysis: On the morning of the microdialysis experiment, a MetaQuant probe was inserted into the guide shaft targeting the head of the caudate nucleus and perfused at a rate of 0.15 μL/min aCSF containing 0.2% (w/v) BSA, with a carrier flow of 0.8 μL/min of ultrapure water.
A single 30 min pre-dose basal dialysate sample was collected from mice over -0.5 to 0 h, and three 30 min basal samples from monkeys over -1.5 to 0 h. Fosmetpantotenate was administered at t = 0, and 30 min dialysate samples were collected for an additional 4 h for mice and 3 h for monkeys.
Sample preparation for mouse dialysate samples: Concentrations of fosmetpantotenate, PA, and PPA in mouse dialysate were determined by Nextcea, Inc, Woburn, MA, using LC-MS/MS. Standard curves and QC samples containing fosmetpantotenate (D1 and D2) and the surrogate analytes for PA and PPA (^15N/^13C3-PA and ^15N/^13C3-PPA) were prepared fresh in 0.1% formic acid in water. Frozen study mouse dialysate samples were thawed in ice/water bath. Standards, QC samples, and thawed study dialysate samples (20 μL) were mixed with 20 μL 0.1% formic acid in water containing internal standard (50 ng/mL of ^15N/^13C3-fosmetpantotenate) and analyzed by LC-MS/MS.
LC-MS/MS analysis for mouse dialysate samples: Concentrations of fosmetpantotenate, PA, and PPA in dialysate from mice were determined by using LC-MS/MS conditions described for blood PK analysis by Nextcea, except dialysate samples were analyzed using an ACIEX API 5000 and flow rate was increased to 0.6 mL/min.
Quantitation of in vivo samples: Peak areas were integrated using Analyst software (AB Sciex, Concord, Ontario, Canada). Calibration curves for all blood samples from mouse and rat PK studies and mouse dialysate samples were prepared by plotting the analyte to internal standard (^15N/^13C3-fosmetpantotenate) peak area ratio vs concentration.
The next data set can be described thus: in vitro. To be noted: pH 7.4, In Vitro Measured Papp.
Another data set has as its system liver and brain CoA. The experiment in a line: Labeled experiments: incorporation of isotopically labeled fosmetpantotenate into CoA. It is filed as in vivo, mouse. To be noted: for Liver CoA (%) +4 AMU / Liver CoA (%) +6 AMU / Liver CoA (%) Unlabeled: 500 mg/kg PO. An excerpt: Fosmetpantotenate was labeled with three ^13C and one ^15N in the PA moiety and with one ^18O in the phosphate moiety, as indicated in Fig 10. The premise of this experiment is the following: if PPA incorporated into CoA originates from fosmetpantotenate metabolism, then all isotope labels (including the ^18O) will be retained in the CoA molecule, resulting in an increase in molecular weight of 6 atomic mass units (AMU) with respect to unlabeled CoA ([M+H]^+ = 774.3 vs 768.3, respectively; Fig 10, Path A). However, if fosmetpantotenate is hydrolyzed to PA, and PA is then re-phosphorylated by WT PanK to yield PPA, or if the ^18O is exchanged with water, then the ^18O would be lost in the process, resulting in a CoA molecule with a 4-AMU increase in molecular weight over unlabeled CoA ([M+H]^+ = 772.3 vs 768.3, respectively, […], Path B). CoA derived from endogenous PA/PPA will have the unchanged molecular weight ([M+H]^+ = 768.3).
Animal phase: C57BL6N mice, 8-week old and 19 to 21 g obtained from Charles River (Como, Italy) were used in these studies. One group of mice (N = 3 per time point) received a single oral dose of 500 mg/kg isotopically labeled fosmetpantotenate dissolved in 20% hydroxypropyl-β-cyclodextrin. Another set of mice (N = 8 per time point) received a direct administration of isotopically labeled fosmetpantotenate at 125 μg (25 mg/mL of aCSF containing 147 mM NaCl, 3.0 mM KCl, 1.2 mM CaCl2, and 1.2 mM MgCl2) via cannula into striatum. Brain, liver, and blood samples were collected at pre-dose, 6 h, 12 h (brain only), and 24 h, and were snap frozen in liquid nitrogen.
Two additional groups of mice (N = 6 per time point for each group) received 3 daily doses (8 am, 2 pm, and 8 pm to mimic an anticipated human dosing schedule) of isotopically labeled fosmetpantotenate at either 1.25 μg (0.625 mg/mL aCSF) or 12.5 μg (6.25 mg/mL aCSF) via ICV infusion cannula (2 μL), for up to 10 consecutive days. Brain (striatum) samples were collected at pre-dose, and at 12 h following the third dose on days 1, 3, 7, and 10, and were snap frozen in liquid nitrogen.
Sample processing: Brain (striatum) and liver tissues were homogenized in a Precellys homogenizer (Bertin technologies, Montigny-le-Bretonneux, France) with 3 volumes of water for each volume of tissue (1:4 dilution). Protein was precipitated by adding 500 μL methanol to 100 μL of homogenate (1:6 dilution), mixed well, and centrifuged. Blood cells (1 volume) were treated with 1:8 v:v water:methanol (1:10 dilution), mixed, and centrifuged. The supernatants (200 μL for brain and blood cells and 100 μL for liver) were dried under nitrogen, reconstituted with 100 μL ammonium acetate 10 mM (pH ~5), and injected (10 μL) into the LC for high resolution mass spectrometry (HRMS) analyses.
CoA determination: An Acquity UPLC (Waters) system was used. Samples were chromatographed on a Luna C18 column (50 x 2.0 mm; 5 μm), with a 0.4 mL/min flow rate and a 10 μL injection volume. The mobile phases were (A), 10 mM ammonium acetate in water, pH 6.8 and (B) acetonitrile:2-propanol (9:1; v:v). The gradient was started with 2% (B) and was increased linearly to reach 20% (B) at 5 min; the gradient was ramped to reach 90% (B) at 5.1 min and kept isocratic at 90% (B) through 7.1 min.
The detector was a Waters QTOF Synapt mass spectrometer, with an electrospray ion source operating in the positive scanning mode acquiring in full scan mode (accuracy <5 ppm). The following exact masses were determined: 768.1230 for CoA, 772.1301 for CoA +4 AMU, and 774.1344 for CoA +6 AMU.
The CoA levels obtained by MS/MS analyses were corrected for ^18O isotopic incorporation. CoA levels were not adjusted for the 1% and 2% of ^12C and ^14N, respectively, in the labeled fosmetpantotenate. […]

Molecules are shown by their SMILES.

Description for in vitro: as §4, §5

With `COC(=O)CCNC(=O)[C@H](O)C(C)(C)COP(=O)(N[C@@H](C)C(=O)OC)Oc1ccccc1` (single isomer, unassigned) [Compound D1], in data set [1], the “half-life (t½) in simulated gastric fluid” value is greater than 600 min. Further, the Mean half-life was less than 5 min in [2], less than 5 min in data set [3], 35 min in [4] and 44 min in data set [5]. Also, the “Percentage Remaining” value was 100% in data set [2] (0 h); 0% in data set [2] (5 min); 0% in [2] (0.25 h); 100% in data set [3] (0 h); 0% in data set [3] (0.5 h); 100% in data set [4] (0 h). In addition, the “Percentage Remaining” value came out at 88% in data set [4] (5 min) and 100% in data set [5] (0 h). The “In Vitro Measured Papp” value in data set [6] is 4.8 ± 1.8 10^−6 cm/s. The “Dialysate Conc” value in [7] is less than 4.72 nM.
Turning to `Cn1c(=O)c2c(ncn2C)n(C)c1=O` [Caffeine], in “in vitro”, the Papp at 1 h stood at 34.3 ± 3.1 ×10⁻⁶ cm/s.
For `N[C@@H](Cc1ccc(O)c(O)c1)C(=O)O` [L-DOPA, S-3,4-dihydroxyphenylalanine, reference compound], the “blood-brain barrier permeability classification” value in data set [6] is on record as “moderate permeability range”. This molecule returned a Papp at 1 h in the data set “in vitro” of 5.8 ± 1.9 ×10⁻⁶ cm/s.
For `OC[C@@H](O)[C@@H](O)[C@H](O)[C@H](O)CO` [Mannitol, reference compound] the same measures were “low end of permeability range” and 2.2 ± 0.7 ×10⁻⁶ cm/s.
Regarding `COC(=O)C(C)NP(=[18O])(OCC(C)(C)C(O)C(=O)[15NH][13CH2][13CH2][13C](=O)OC)Oc1ccccc1` (stereo not shown) [isotopically-labeled fosmetpantotenate], the “Brain CoA (%) +4 AMU” value came to 0% with liver and brain CoA (1.25 μg ICV, dose day 3); 5% in the data set with liver and brain CoA (1.25 μg ICV, dose day 7); 8% with liver and brain CoA (1.25 μg ICV, dose day 10); 8% in the data set with liver and brain CoA (12.5 μg ICV, dose day 3); 14% in the data set on liver and brain CoA (12.5 μg ICV, dose day 7); 16% with liver and brain CoA (12.5 μg ICV, dose day 10). Moreover, the “Brain CoA (%) +4 AMU” value worked out at 2.8% in the data set with liver and brain CoA (125 μg intrastriatally, 6 h); 3.6% in the data set on liver and brain CoA (125 μg intrastriatally, 12 h); 4.3% in the data set with liver and brain CoA (125 μg intrastriatally, 24 h). Moreover, the “Brain CoA (%) +6 AMU” value came to 0% in the data set on liver and brain CoA (1.25 μg ICV, dose day 3); 4% in the data set on liver and brain CoA (1.25 μg ICV, dose day 7); 6% in the data set with liver and brain CoA (1.25 μg ICV, dose day 10); 15% in the data set with liver and brain CoA (12.5 μg ICV, dose day 3); 27% in the data set with liver and brain CoA (12.5 μg ICV, dose day 7); 28% in the data set on liver and brain CoA (12.5 μg ICV, dose day 10). Besides, the “Brain CoA (%) +6 AMU” value in the data set with liver and brain CoA (12.5 μg ICV, dose day 10, listed as isotopically labeled-fosmetpantotenate) is on record as ~ 30%; in the data set on liver and brain CoA (125 μg intrastriatally, 6 h), 36.2%; in the data set on liver and brain CoA (125 μg intrastriatally, 12 h), 46.4%; in the data set on liver and brain CoA (125 μg intrastriatally, 24 h), 50.7%; with liver and brain CoA (125 μg intrastriatally, 24 h, listed as isotopically labeled-fosmetpantotenate), ~ 50%. Also, the “Brain CoA (%) Unlabeled” value with liver and brain CoA (1.25 μg ICV, dose day 3) worked out at 100%; in the data set on liver and brain CoA (1.25 μg ICV, dose day 7), 91%; with liver and brain CoA (1.25 μg ICV, dose day 10), 86%; in the data set on liver and brain CoA (12.5 μg ICV, dose day 3), 77%; in the data set on liver and brain CoA (12.5 μg ICV, dose day 7), 59%; in the data set on liver and brain CoA (12.5 μg ICV, dose day 10), 56%. Moreover, the “Brain CoA (%) Unlabeled” value in the data set with liver and brain CoA (125 μg intrastriatally, 6 h) was 61%; in the data set with liver and brain CoA (125 μg intrastriatally, 12 h) it was 50%; in the data set on liver and brain CoA (125 μg intrastriatally, 24 h), 45%. Besides, the “Liver CoA (%) +4 AMU” value is 1.4% in the data set with liver and brain CoA (6 h); 8.4% with liver and brain CoA (24 h); 8% in the data set on liver and brain CoA (24 h, listed as isotopically labeled fosmetpantotenate). For the same molecule, the “Liver CoA (%) +6 AMU” value with liver and brain CoA (6 h) is on record as 40%; in the data set on liver and brain CoA (6 h, listed as isotopically labeled-fosmetpantotenate), ~ 40%; in the data set on liver and brain CoA (24 h), 34%. The “Liver CoA (%) Unlabeled” value in the data set with liver and brain CoA (6 h) was 58.6%; in the data set on liver and brain CoA (24 h), 58%. In the data set on liver and brain CoA (500 mg/kg single oral administration), the “incorporation of fosmetpantotenate-derived PPA in brain CoA” value is recorded as “not observed”.

These data come from publication PMC5844530, “Fosmetpantotenate (RE-024), a phosphopantothenate replacement therapy for pantothenate kinase-associated neurodegeneration: Mechanism of action and efficacy in nonclinical models” (PLoS ONE, 2018).
